Source: patent publication US20080233210A1, “Co-Biocidal Formulation for Polymeric Materials” (U.S. BORAX INC., priority 2005, published 2008)

How the values were obtained:
[1] = system: Aspergillus niger, Penicillium pinophilum, Chetomium globusum, Gliocladium virens, Aurebasidium pullulans; assay: ASTM G-21 fungi resistance of extruded wood/thermoplastic composite boards, unweathered or after QUV accelerated weathering with leaching; type: cell-based; set-up: key to Visual Assessment of Fungal Growth (0-4 scale) / Visual assessment of fungal growth, ZB = 2%, Weathering 0 h: 0: None; Traces of growth (less than 10%); 2: Light growth (10 to 30%); Medium growth (more than 30 to 60%); 4: Heavy growth (60% to complete coverage); settings: for Visual Assessment of Fungal Growth (0-4 scale): pine WPC without UV stabilizer; for Visual Assessment of Fungal Growth (0-4 scale) / visual assessment, 0-4 fungal growth assessment scale: cobiocide content 0% (borate alone); for visual assessment, 0-4 fungal growth assessment scale: oak WPC, no UV stabilizer package
Experimental: Three 50×50×4 mm specimens were cut from the core of extruded boards, sterilized with a 30 kGy dose of Electron beam radiation and exposed to fungi attack according to ASTM G-21.
After 28 days exposure to the fungi at 98% relative humidity and 28° C., specimens were evaluated using the first scale, from 0-4 as recommended by ASTM G-21 (see Table 3). Results are shown in Table 4 with the summary in Tables 5-7.
Samples prepared according to Example 1 were exposed to accelerated weathering using a QUV accelerated weathering chamber with fluorescent bulb combined with leaching cycle. […] This includes cycles comprised of 8 h UV light (UVA 340 lamps @0.77 W/m^2/nm) @60° C. followed by 4 hours condensation @50° C. Samples were exposed to these conditions for 15 hours and then leached in water. Leaching consisted of 4 hours soaking and 3 hours drip dry (1 hours was required for sample handling). […] After exposure, three 1″×2.5″×⅛″ specimens were cut from the sample. The surface exposed to light and leaching and tested for fungi resistance as described in example 2. Results are presented in Table 3 with summary in Tables 4-6
Samples prepared according to Example 1 were exposed to accelerated weathering using a QUV accelerated weathering chamber with fluorescent bulb combined with leaching cycle. Total exposure time was 1000 hours. This includes cycles comprised of 8 h UV light (UVA 340 lamps @0.77 W/m^2/nm) @60° C. followed by 4 hours condensation @50° C. Samples were exposed to these conditions for 16 hours and then leached in water. Leaching consisted of 4 hours soaking and 3 hours drip dry (1 h was required for sample handling). […] After exposure, three 1″×2.5″×⅛″ specimens were cut from the sample. The surface exposed to light and leaching and tested for fungi resistance as described in Example 2. Results are presented in Table 3 with summary in Tables 4-6.

[2] = system: Aspergillus niger, Penicillium pinophilum, Chetomium globusum, Gliocladium virens, Aurebasidium pullulans; assay: ASTM G-21 fungi exposure of dried paint coating films; type: cell-based; settings: coating film, ASTM G-21, 28 days; very high concentrations of Chlortram (0.33%)
Experimental: The coatings were cast on flat polyethylene sheeting and dried into 10 mil thick film before removal from the polyethylene substrate. The dried paint coatings were cut into 2″×2″ square specimens, sterilized with 30 kGy EB radiation and exposed to fungi attack according to ASTM G-21. After 28 days exposure to the fungi at 98% relative humidity and 28° C., the specimens were evaluated using two scales.

OB(O)O [BA]
Visual Assessment of Fungal Growth (0-4 scale) ([1]; BA = 1%, weathering 0 hours): 4 (Heavy growth (60% to complete coverage))
Visual Assessment of Fungal Growth (0-4 scale) ([1]; BA = 2%, weathering 0 hours): 3 (Medium growth (more than 30 to 60%))

N#Cc1c(Cl)c(Cl)c(Cl)c(C#N)c1Cl [Chlortram, 2,4,5,6 tetrachloro-1,3-benzene-dicarbonitrile]
fungal growth observed on coating specimens [2]: No fungal growth

Zinc borate [ZB]
visual assessment, 0-4 fungal growth assessment scale ([1]; ZB = 1%, weathering 0 h): 4 (Heavy growth (60% to complete coverage))
visual assessment, 0-4 fungal growth assessment scale ([1]; ZB = 1%, weathering 500 h): 4 (Heavy growth (60% to complete coverage))
visual assessment, 0-4 fungal growth assessment scale ([1]; ZB = 1%, weathering 1000 h): 3 (Medium growth (more than 30 to 60%))
visual assessment, 0-4 fungal growth assessment scale ([1]; ZB = 1.5%, weathering 0 h): 2 (Light growth (10 to 30%))
visual assessment, 0-4 fungal growth assessment scale ([1]; ZB = 2%, weathering 0 h): 2 (Light growth (10 to 30%))
visual assessment, 0-4 fungal growth assessment scale ([1]; ZB = 2%, weathering 500 h): 3 (Medium growth (more than 30 to 60%))
visual assessment, 0-4 fungal growth assessment scale ([1]; ZB = 2%, weathering 1000 h): 3 (Medium growth (more than 30 to 60%))
Visual assessment of fungal growth, ZB = 1%, Weathering 0 h ([1]; pine WPC with UV stabilizer package, cobiocide content 0%, ZB = 1%, 0 h): 1 (Traces of growth (less than 10%))
Visual assessment of fungal growth, ZB = 1%, Weathering 500 h ([1]; pine WPC with UV stabilizer package, cobiocide content 0%, ZB = 1%, 500 h): 4 (Heavy growth (60% to complete coverage))
Visual assessment of fungal growth, ZB = 1%, Weathering 1000 h ([1]; pine WPC with UV stabilizer package, cobiocide content 0%, ZB = 1%, 1000 h): 4 (Heavy growth (60% to complete coverage))
Visual assessment of fungal growth, ZB = 2%, Weathering 0 h ([1]; pine WPC with UV stabilizer package, cobiocide content 0%, ZB = 2%, 0 h): 0
Visual assessment of fungal growth, ZB = 2%, Weathering 500 h ([1]; pine WPC with UV stabilizer package, cobiocide content 0%, ZB = 2%, 500 h): 3 (Medium growth (more than 30 to 60%))
Visual assessment of fungal growth, ZB = 2%, Weathering 1000 h ([1]; pine WPC with UV stabilizer package, cobiocide content 0%, ZB = 2%, 1000 h): 4 (Heavy growth (60% to complete coverage))
Visual Assessment of Fungal Growth (0-4 scale) ([1]; ZB = 1%, weathering 0 h): 2 (Light growth (10 to 30%))
Visual Assessment of Fungal Growth (0-4 scale) ([1]; ZB = 1%, weathering 500 h): 4 (Heavy growth (60% to complete coverage))
Visual Assessment of Fungal Growth (0-4 scale) ([1]; ZB = 1%, weathering 1000 h): 4 (Heavy growth (60% to complete coverage))
Visual Assessment of Fungal Growth (0-4 scale) ([1]; ZB = 1.5%, weathering 0 hours): 1 (Traces of growth (less than 10%))
Visual Assessment of Fungal Growth (0-4 scale) ([1]; ZB = 2%, weathering 0 h): 0
Visual Assessment of Fungal Growth (0-4 scale) ([1]; ZB = 2%, weathering 500 h): 4 (Heavy growth (60% to complete coverage))
